Assay results published in paper PMC11181322, “Copper(II) Complexes with Isomeric Morpholine-Substituted 2-Formylpyridine Thiosemicarbazone Hybrids as Potential Anticancer Drugs Inhibiting Both Ribonucleotide Reductase and Tubulin Polymerization: The Morpholine Position Matters” (Journal of Medicinal Chemistry, 2024).
Read-outs that look alike come from different tables or passages of the source. Blank lines part the entries; values can stand above or below the compound they belong to.

Key:
[1] = design: method as in PMID 32336116; settings: copper(II) complexes of the named TSCs, measured under similar conditions ref 67; cited from earlier work
MES-SA/Dx5 cells = experiment: Fluorescent protein-based cytotoxicity assay, MES-SA/Dx5; format: cell-based, human; settings: for IC50: 120 h, ± SD, n = 3; for SR, selectivity ratio IC50 (MES-SA)/IC50 (MES-SA/Dx5): in the absence of TQ
Text: (§1) The cytotoxic activity of proligands H2L^3–H2L^6 and their copper(II) complexes 3–6 was investigated in the MES-SA (human uterine sarcoma) and in its MDR counterpart (MES-SA/Dx5) cell lines by a fluorescent protein-based assay.[73]
(§2) The human uterine sarcoma cell lines MES-SA and the doxorubicin selected MES-SA-Dx5 were obtained from ATCC (MES-SA: No. CRL-1976, MES-SA/Dx5: No. CRL-1977) and were used for the intracellular ROS generation studies. For cytotoxicity, we used the fluorescent cell lines MES-SA mCherry and MES-SA/Dx5 eGFP, which were created by lentiviral transductions of the respective genes.[73] The phenotype of the resistant cells was maintained by 500 nM doxorubicin treatment a week before use and was verified using cytotoxicity assays. Cells were cultivated at 37 °C, 5% CO2 in Dulbecco’s modified Eagle's Medium (DMEM, Sigma-Aldrich), supplemented with 10% fetal bovine serum, 5 mM glutamine, and 50 unit/mL penicillin and streptomycin (Thermo Fisher).
(§3) MES-SA mCherry and MES-SA/Dx5 eGFP cell suspensions were seeded after trypsinization at 2500 cells/20 μL density on 384-well plates, containing 20 μL of completed medium. The next day, serial dilution of the compounds was prepared and added in an additional 20 μL, with or without 0.4 μM Tariquidar. Liquid handling steps were performed by a Hamilton StarLet robot. […] The mean and standard deviation of the pIC50 values were calculated and converted to IC50 values.

MES-SA cells = experiment: Fluorescent protein-based cytotoxicity assay, MES-SA; format: cell-based, human; settings: 120 h, ± SD, n = 3
Text: as §1, §2, §3

mR2 RNR protein = molecular target: T1, mR2 RNR protein (Mus musculus, UniProt P11157); experiment: Tyrosyl radical reduction in mR2 RNR protein (EPR); format: biochemical; settings: 20 μM mR2, 1:1 protein-to-drug
T1 construct: made in house
T1 sequence (P11157 1-390): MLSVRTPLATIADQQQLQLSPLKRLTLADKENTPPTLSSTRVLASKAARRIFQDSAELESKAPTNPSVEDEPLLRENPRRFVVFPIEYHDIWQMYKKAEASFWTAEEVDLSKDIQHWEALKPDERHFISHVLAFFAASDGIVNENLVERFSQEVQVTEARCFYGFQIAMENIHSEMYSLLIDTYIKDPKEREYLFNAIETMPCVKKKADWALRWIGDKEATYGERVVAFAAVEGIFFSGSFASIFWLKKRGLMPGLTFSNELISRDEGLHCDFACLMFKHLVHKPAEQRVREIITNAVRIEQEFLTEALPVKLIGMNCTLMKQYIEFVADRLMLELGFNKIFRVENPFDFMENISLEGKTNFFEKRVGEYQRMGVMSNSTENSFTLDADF
Description: Since α-N-heterocyclic TSCs are very potent R2 RNR inhibitors, the time-dependent Y^• reduction of the mR2 RNR protein was measured. The effect of equimolar concentrations of the proligands H2L^3–H2L^6 and their copper(II) complexes 3–6, in the absence and presence of an external reductant DTT, is shown in Figure 7.
Figure 7 Tyrosyl radical reduction kinetics of mR2 RNR (20 μM) in the absence (triangles) and in the presence (circles) of an external reductant (2 mM DTT) at the 1:1 protein-to-drug ratio, measured by EPR spectroscopy at 30 K, for (a) H2L^3 (black), H2L^4 (red), H2L^5 (blue), and H2L^6 (green) and for (b) 3 (black), 4 (red), 5 (blue), and 6 (green).
Samples containing 20 μM mR2 in 50 mM HEPES buffer, pH 7.5/100 mM NaCl, 20 μM compound in 1% (v/v) DMSO/H2O, in the absence or presence of 2 mM DTT, were incubated for indicated times and quickly frozen in cold isopentane. The same samples were used for repeated incubations at room temperature. The experiments were performed in duplicate.

[2] = Proton dissociation constants (pKa) of the proligands by pH-potentiometry, UV–vis and 1H NMR titrations; format: physicochemical; settings: 30% (v/v) DMSO/H2O solvent mixture, I = 0.1 M (KCl), t = 25 °C
Description: (§4) The path length was 1 cm.
^1H NMR spectroscopic studies were carried out on a Bruker Avance III HD instrument. All spectra were recorded with the WATERGATE water suppression pulse scheme using sodium trimethylsilylpropanesulfonate as internal standard.

[3] = calculated at pH 7.4, aqueous solution ref 69, 52; cited from earlier work
purified tubulin = experiment: Inhibition of polymerization of purified tubulin; format: biochemical; settings: read-out: inhibition of tubulin IC50 ± SD
[4] = Redox reaction of the copper(II) complexes with GSH (UV–vis, anoxic); format: physicochemical; settings: pH 7.4 (50 mM HEPES); ccomplex = 25 μM; cGSH = 1.25 mM; pure water; 25 °C
Text: The direct reduction of the copper(II) complexes with the antioxidant GSH was investigated in anoxic aqueous solution at pH 7.4 by UV–vis spectrophotometry. At this pH, the complex [Cu(HL)]^+ is assumed to predominate according to the speciation studies (vide supra). The spectral changes were monitored in the wavelength range 250–550 nm by using a large excess of GSH (50 equiv). In this wavelength range, the spectral changes are due to the absorption of the metal complex and the ligand.
These changes imply that, after reduction in the presence of excess GSH, the generated copper(I) complex is not stable and liberates the free TSC ligand. […] The time-dependent absorbance changes are shown for all the studied systems in Figure 4b. The observed rate constants (kobs) were calculated (Table 2) as a semiquantitative description of the reaction kinetics. […] The obtained kobs values fall into the range for Triapine (0.10 min^–1), 2-pyridinecarboxaldehyde TSC (0.041 min^–1), and N-monomethylated N-methyl-Triapine (0.077 min^–1), measured under similar conditions.[67] To find out whether this slightly different kinetics for 6 and 3–5 is in accordance with their reduction potentials, cyclic voltammetry was performed.
The redox reaction of the copper(II) complexes with GSH and ascorbic acid was studied at 25.0 ± 0.1 °C on a Hewlett-Packard 8452A diode array spectrophotometer using a special, tightly closed tandem cuvette (Hellma Tandem Cell, 238-QS). The reactants were separated until the reaction was triggered. Both isolated pockets of the cuvette were completely deoxygenated by bubbling a stream of Ar for 10 min before mixing the reactants. Spectra were recorded before and then immediately after the mixing, and changes were followed until no further absorbance change was observed. One of the isolated pockets contained the reducing agent, and the other contained the complex. Their final concentrations were 1250 and 25 μM, respectively. The pH of all the solutions was adjusted to 7.40 by 50 mM HEPES buffer. The ionic strength of the solution was 0.1 M (KCl). The stock solutions of the reducing agents and the complexes were freshly prepared every day. During the calculations, the absorbance (A) – time (t) curves were fitted and analyzed at the λmax of the complex. (A0 – Afinal) × e^(−a×t) + Afinal was the fitting equation used, where the A0, Afinal, and a parameters were refined and accepted at the minimal value of the weighted sum of squared residuals (difference between the measured and calculated absorbance values) at the given wavelength. Then, observed rate constants (kobs) of the redox reaction were obtained from the data points of the simulated absorbance–time curves as the slope of the ln(A/A0) vs time plots.

[5] = Conditional stability constants of the copper(II) complexes by EDTA displacement (UV–vis); format: physicochemical
Description: The stability constants of 3–6 were determined by EDTA competition experiments monitored by UV–vis spectrophotometry at pH 5.9, where the [Cu(HL)]^+ species is dominant. Since the displacement of the TSC ligand by EDTA is relatively slow, a 2 h reaction time was used to reach equilibrium. Upon increasing the concentration of EDTA, the absorbance of the characteristic S → Cu charge transfer band at 400–416 nm decreased (see, for example, Figure 3 for the copper(II)–H2L^4 (1:1) system).[68] The experiments were performed in both aqueous solution and the 30% (v/v) DMSO/H2O solvent mixture. The determined conditional (apparent) formation constants (log K′5.9) are rather similar (see Table 2) in both media. However, the values are lower in the DMSO/H2O solvent mixture than in aqueous solution, presumably due to coordination of DMSO to copper(II). An analogous observation was reported for the copper(II) complex of Triapine.[67] […] To compare the copper(II) binding ability of the studied TSCs H2L^3–H2L^6 at pH 5.9 (at which the conditional constants were determined), pCu (−log [Cu(II)]) values were also computed using the experimentally determined equilibrium constants (Table 2). The higher pCu value indicates a stronger metal ion binding ability of the ligand under given circumstances. The ligands form complexes with fairly similar stability, in agreement with the conditional stability constants. […] A similar behavior was reported for aqueous solutions of the N-terminally dimethylated derivative of the 2-pyridinecarboxaldehyde TSC (PTSC)[69] and for the corresponding morpholine-hybrid Morph-dm-FTSC.[52] In particular, the calculated pCu values were also very close, 13.17 for PTSC vs 13.08 for Morph-dm-FTSC calculated at pH 7.4.
as §4

[6] = Cyclic voltammetry of copper(II) complexes in DMSO/n-Bu4NPF6; format: physicochemical
Description: The redox properties of the copper(II) complexes 3–6 were investigated by electrochemical, EPR, and UV–vis spectroelectrochemical measurements. […] While the half-wave reduction potentials E1/2^red for complexes 3–5 were almost the same (−0.82 V vs Fc^+/Fc), the E1/2^red for 6 is by 0.07 V more positive (−0.75 V vs Fc^+/Fc), as summarized in Table 4. The corresponding proligands are not redox active in the cathodic part (not shown).
Cyclic voltammetric experiments with 0.5 mM solutions of copper(II) complexes 3–6 in 0.1 M nBu4NPF6 (puriss quality from Fluka; dried under reduced pressure at 70 °C for 24 h before use) as supporting electrolyte in DMSO (SeccoSolv max. 0.025% H2O, Merck) were performed under Ar using a three-electrode arrangement with Pt wire as the counter electrode and Ag wire as the pseudoreference electrode. Glassy carbon or Pt wire served as the working electrode. Ferrocene purchased from Sigma-Aldrich was used as the internal potential standard without further purification. All potentials in voltammetric studies were quoted vs ferricenium/ferrocene (Fc^+/Fc) as the redox couple. A Heka PG310USB (Lambrecht, Germany) potentiostat with a PotMaster 2.73 software package served for the potential control in voltammetric studies. In situ ultraviolet–visible-near-infrared (UV–vis–NIR) spectroelectrochemical measurements were performed on a spectrometer (Avantes, Model AvaSpec-2048 × 14-USB2 in the spectroelectrochemical cell kit ([…]3) with the Pt-microstructured honeycomb working electrode, purchased from Pine Research Instrumentation. The cell was positioned in the CUV-UV Cuvette Holder (Ocean Optics) connected to the diode array UV–vis-NIR spectrometer by optical fibers. UV–vis-NIR spectra were processed using the AvaSoft 7.7 software package. Halogen and deuterium lamps were used as light sources (Avantes, Model AvaLight-DH-S-BAL).

tubulin = experiment: Inhibition of [3H]colchicine binding to tubulin; settings: for inhibition of colchicine binding % inhibition ± SD: tubulin 0.5 μM, colchicine 5 μM

SMILES: NC(=S)N/N=C/c1ccccn1 [2-pyridinecarboxaldehyde TSC]
kobs, reduction by GSH [1]: 0.041 min^–1

Y• reduced in mR2 protein (mR2 RNR protein; after 15 min, in the presence of 2 mM DTT): ~70%
Y• reduced in mR2 protein (mR2 RNR protein; without DTT): ca. 20%
pKa ([2]; UV–vis spectrophotometry, read-out: pKa1): 1.53 ± 0.01
pKa ([2]; pH–potentiometry, read-out: pKa1): < 2
pKa ([2]; pH–potentiometry, read-out: pKa2): 5.62 ± 0.06
pKa ([2]; pH–potentiometry, read-out: pKa3): > 10.5
SMILES: Cc1cc(NC(=S)N/N=C/c2ncccc2CN2CCOCC2)cc(C)c1O [H2L^3]
IC50 (MES-SA/Dx5 cells; Homo sapiens, MES-SA/Dx5): 13.1 ± 3.2 µM
SR, selectivity ratio IC50 (MES-SA)/IC50 (MES-SA/Dx5) (MES-SA/Dx5 cells): 0.22
IC50 (MES-SA cells; Homo sapiens, MES-SA): 2.9 ± 0.4 µM

SMILES: CN(C)C(=S)NN=Cc1ccccn1 [PTSC]
pCu [3]: 13.17

IC50 (purified tubulin): 7 ± 0.3 µM
logK′5.9 (DMSO/H2O) ([5]; EDTA displacement, UV–vis, pH 5.9, 30% (v/v) DMSO/H2O, 25 °C): 10.33 ± 0.01
logK′5.9 (H2O) ([5]; EDTA displacement, UV–vis, pH 5.9, water, I = 0.1 M (KCl), 25 °C): 13.82 ± 0.04
pCu5.9 (=–log[Cu(II)]) ([5]; calcd. at pH 5.9, cL = cCu(II) = 1 μM): 8.20
Epa^1 ([6]; first anodic peak potential vs Fc+/Fc, 100 mV s^–1): +0.27 V
Epa^2 ([6]; second anodic peak potential vs Fc+/Fc, 100 mV s^–1): +0.79 V
E1/2^red ([6]; vs Fc+/Fc, scan rate 100 mV s^–1): –0.83 V
inhibition of colchicine binding % inhibition ± SD (tubulin; 5 μM inhibitor): 22 ± 2%
inhibition of colchicine binding % inhibition ± SD (tubulin; 25 μM inhibitor): 40 ± 3%
fold less potent than CA-4 in inhibiting [3H]colchicine binding (tubulin; at the 5 μM concentration): 4.5 fold
SMILES: Cc1cc(NC(=NN=Cc2ncccc2CN2CCOCC2)[S][Cu][Cl])cc(C)c1O [complex 3, [Cu(HL^3)Cl]·H2O]
IC50 (MES-SA/Dx5 cells): 5.5 ± 0.6 µM
SR, selectivity ratio IC50 (MES-SA)/IC50 (MES-SA/Dx5) (MES-SA/Dx5 cells): 2.76
kobs, redox reaction with GSH [4]: 0.059 ± 0.004 min^–1
IC50 (MES-SA cells): 15 ± 3 µM
